What was measured:
[1] = target: T1, Homeodomain-interacting protein kinase 4 (Homo sapiens) (UniProt Q8NE63); test: HIPK4 Invitrogen selectivity data (BI); conditions: Compound concentration 3.0 uM
T1 sequence (whole entry): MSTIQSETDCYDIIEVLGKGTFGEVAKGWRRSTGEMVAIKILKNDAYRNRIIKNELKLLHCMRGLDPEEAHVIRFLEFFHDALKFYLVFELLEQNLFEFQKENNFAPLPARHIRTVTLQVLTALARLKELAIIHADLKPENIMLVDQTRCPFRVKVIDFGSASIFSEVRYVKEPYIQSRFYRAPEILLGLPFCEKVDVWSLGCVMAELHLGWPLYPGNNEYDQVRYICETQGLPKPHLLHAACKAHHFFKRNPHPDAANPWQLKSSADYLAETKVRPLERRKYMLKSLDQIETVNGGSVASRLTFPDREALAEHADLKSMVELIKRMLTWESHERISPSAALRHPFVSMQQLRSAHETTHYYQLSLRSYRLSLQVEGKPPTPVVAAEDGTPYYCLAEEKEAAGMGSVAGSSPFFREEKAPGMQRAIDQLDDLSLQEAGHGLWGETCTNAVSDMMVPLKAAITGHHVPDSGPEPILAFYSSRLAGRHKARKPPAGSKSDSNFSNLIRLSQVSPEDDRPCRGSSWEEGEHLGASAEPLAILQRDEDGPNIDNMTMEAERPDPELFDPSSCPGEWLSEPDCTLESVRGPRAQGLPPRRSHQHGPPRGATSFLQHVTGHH

[2] = target: Substance-P receptor (Homo sapiens) (UniProt P25103); test: NK1/HUM Cerep selectivity data (BI); conditions: Compound concentration 20.0 uM
[3] = target: Glutamate receptor ionotropic, AMPA (Rattus norvegicus) (UniProt P19491+P19492+P19493+P19490); test: AMPA/R Cerep selectivity data (BI); type: protein-complex assay; conditions: Compound concentration 20.0 uM
[4] = target: PI3-kinase p110-delta/p85-alpha (Homo sapiens) (UniProt P27986+O00329); test: PIK3CDPIK3R1 Invitrogen selectivity data (BI); type: protein-complex assay; conditions: Compound concentration 3.0 uM
[5] = target: Cyclin-dependent kinase 1/cyclin B (Homo sapiens) (UniProt P06493+P14635+Q8WWL7+O95067); test: CDK1/CYCLINB Invitrogen selectivity data (BI); type: protein-complex assay; conditions: Compound concentration 3.0 uM
[6] = organism: Homo sapiens; test: HIV-1/H Cerep selectivity data (BI); conditions: Compound concentration 20.0 uM
[7] = target: Adenosine receptor A3 (Homo sapiens) (UniProt P0DMS8); test: A3/H Eurofins-Panlabs selectivity data (BI); conditions: Compound concentration 10.0 uM
[8] = target: Histamine H4 receptor (Homo sapiens) (UniProt Q9H3N8); test: H4/H AG Cerep selectivity data (BI); conditions: filed as agonist, Compound concentration 20.0 uM
[9] = target: Mitogen-activated protein kinase kinase kinase 8 (Homo sapiens) (UniProt P41279); test: MAP3K8 Invitrogen selectivity data (BI); conditions: Compound concentration 3.0 uM
[10] = target: Vasopressin V2 receptor (Homo sapiens) (UniProt P30518); test: V2/H Cerep selectivity data (BI); conditions: Compound concentration 20.0 uM
[11] = target: Melanin-concentrating hormone receptor 1 (Homo sapiens) (UniProt Q99705); test: MCH1H_AGON Cerep selectivity data (BI); conditions: filed as agonist, Compound concentration 20.0 uM
[12] = target: Receptor tyrosine-protein kinase erbB-2 (Homo sapiens) (UniProt P04626); test: ERBB2 Invitrogen selectivity data (BI); conditions: Compound concentration 3.0 uM
[13] = target: 5-hydroxytryptamine receptor 2A (Homo sapiens) (UniProt P28223); test: 5HT2AH_AGON Cerep selectivity data (BI); conditions: filed as agonist, Compound concentration 20.0 uM
[14] = target: Death-associated protein kinase 3 (Homo sapiens) (UniProt O43293); test: DAPK3 Invitrogen selectivity data (BI); conditions: Compound concentration 3.0 uM
[15] = target: Tyrosine-protein kinase Fes/Fps (Homo sapiens) (UniProt P07332); test: FES Invitrogen selectivity data (BI); conditions: Compound concentration 3.0 uM
[16] = target: Cysteinyl leukotriene receptor 1 (Homo sapiens) (UniProt Q9Y271); test: CYSLT1_HS Eurofins-Panlabs selectivity data (BI); conditions: Compound concentration 10.0 uM
[17] = target: Casein kinase I isoform delta (Homo sapiens) (UniProt P48730); test: CSNK1D Invitrogen selectivity data (BI); conditions: Compound concentration 3.0 uM
[18] = target: Serine/threonine-protein kinase 33 (Homo sapiens) (UniProt Q9BYT3); test: STK33 Invitrogen selectivity data (BI); conditions: Compound concentration 3.0 uM
[19] = target: T2, Serine/threonine-protein kinase 4 (Homo sapiens) (UniProt Q13043); test: STK4 Invitrogen selectivity data (BI); conditions: Compound concentration 3.0 uM
T2 sequence (whole entry): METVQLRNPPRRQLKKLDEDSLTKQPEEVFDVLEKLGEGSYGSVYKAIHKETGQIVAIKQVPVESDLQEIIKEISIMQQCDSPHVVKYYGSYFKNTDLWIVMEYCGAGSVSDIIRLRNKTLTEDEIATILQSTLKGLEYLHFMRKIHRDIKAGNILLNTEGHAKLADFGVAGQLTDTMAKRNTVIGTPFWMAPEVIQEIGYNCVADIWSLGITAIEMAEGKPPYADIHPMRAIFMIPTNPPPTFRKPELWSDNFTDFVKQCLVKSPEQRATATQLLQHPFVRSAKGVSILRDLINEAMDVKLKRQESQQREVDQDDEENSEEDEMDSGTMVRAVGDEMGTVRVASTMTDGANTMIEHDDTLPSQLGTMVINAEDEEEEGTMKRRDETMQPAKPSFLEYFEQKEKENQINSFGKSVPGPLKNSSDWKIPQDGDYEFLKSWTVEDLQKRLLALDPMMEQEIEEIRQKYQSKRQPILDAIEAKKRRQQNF

[20] = target: Angiotensin-converting enzyme (Homo sapiens) (UniProt P12821); test: ACE(HU) Cerep selectivity data (BI); conditions: Compound concentration 20.0 uM
[21] = target: High affinity nerve growth factor receptor (Homo sapiens) (UniProt P04629); test: NTRK1 Invitrogen selectivity data (BI); conditions: Compound concentration 3.0 uM
[22] = target: Activin receptor type-2B (Homo sapiens) (UniProt Q13705); test: ACVR2B Invitrogen selectivity data (BI); conditions: Compound concentration 3.0 uM
[23] = target: MAP kinase-interacting serine/threonine-protein kinase 2 (Homo sapiens) (UniProt Q9HBH9); test: MKNK2 (MNK2) Invitrogen selectivity data (BI); conditions: Compound concentration 3.0 uM
[24] = target: Phosphatidylinositol 4-phosphate 3-kinase C2 domain-containing subunit beta (Homo sapiens) (UniProt O00750); test: PIK3C2B Invitrogen selectivity data (BI); conditions: Compound concentration 3.0 uM

Measured: residual activity

Sequence of High affinity nerve growth factor receptor (Homo sapiens) (P04629 33-796 limits assumed): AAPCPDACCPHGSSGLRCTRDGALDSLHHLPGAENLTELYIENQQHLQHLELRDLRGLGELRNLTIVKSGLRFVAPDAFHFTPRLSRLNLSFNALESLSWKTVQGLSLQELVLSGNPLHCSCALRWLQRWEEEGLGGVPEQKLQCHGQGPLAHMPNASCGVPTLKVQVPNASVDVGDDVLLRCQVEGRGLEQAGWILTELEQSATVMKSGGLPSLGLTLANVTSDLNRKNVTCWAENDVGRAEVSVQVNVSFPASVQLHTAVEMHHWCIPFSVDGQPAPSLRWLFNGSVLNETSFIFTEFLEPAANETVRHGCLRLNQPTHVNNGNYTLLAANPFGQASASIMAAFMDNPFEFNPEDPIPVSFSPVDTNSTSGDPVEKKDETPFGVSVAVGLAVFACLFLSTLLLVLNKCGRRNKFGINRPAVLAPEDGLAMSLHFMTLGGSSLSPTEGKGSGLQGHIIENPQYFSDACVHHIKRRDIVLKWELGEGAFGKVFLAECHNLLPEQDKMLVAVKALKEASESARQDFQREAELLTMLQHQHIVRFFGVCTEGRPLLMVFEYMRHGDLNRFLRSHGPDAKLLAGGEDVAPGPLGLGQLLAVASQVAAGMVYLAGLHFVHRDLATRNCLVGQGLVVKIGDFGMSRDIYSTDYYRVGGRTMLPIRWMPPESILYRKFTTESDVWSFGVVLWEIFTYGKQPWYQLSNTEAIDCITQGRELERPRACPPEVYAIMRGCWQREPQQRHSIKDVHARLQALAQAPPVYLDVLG
Sequence of Adenosine receptor A3 (Homo sapiens) (P0DMS8 whole entry): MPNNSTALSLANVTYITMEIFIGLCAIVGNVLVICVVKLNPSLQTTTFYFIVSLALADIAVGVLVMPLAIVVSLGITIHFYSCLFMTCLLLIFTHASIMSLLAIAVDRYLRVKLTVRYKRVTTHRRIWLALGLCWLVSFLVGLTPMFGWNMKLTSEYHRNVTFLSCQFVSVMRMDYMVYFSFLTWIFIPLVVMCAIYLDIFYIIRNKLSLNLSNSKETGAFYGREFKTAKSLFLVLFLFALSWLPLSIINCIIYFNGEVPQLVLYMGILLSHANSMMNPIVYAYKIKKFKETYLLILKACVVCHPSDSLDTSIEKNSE
Sequence of Angiotensin-converting enzyme (Homo sapiens) (P12821 whole entry): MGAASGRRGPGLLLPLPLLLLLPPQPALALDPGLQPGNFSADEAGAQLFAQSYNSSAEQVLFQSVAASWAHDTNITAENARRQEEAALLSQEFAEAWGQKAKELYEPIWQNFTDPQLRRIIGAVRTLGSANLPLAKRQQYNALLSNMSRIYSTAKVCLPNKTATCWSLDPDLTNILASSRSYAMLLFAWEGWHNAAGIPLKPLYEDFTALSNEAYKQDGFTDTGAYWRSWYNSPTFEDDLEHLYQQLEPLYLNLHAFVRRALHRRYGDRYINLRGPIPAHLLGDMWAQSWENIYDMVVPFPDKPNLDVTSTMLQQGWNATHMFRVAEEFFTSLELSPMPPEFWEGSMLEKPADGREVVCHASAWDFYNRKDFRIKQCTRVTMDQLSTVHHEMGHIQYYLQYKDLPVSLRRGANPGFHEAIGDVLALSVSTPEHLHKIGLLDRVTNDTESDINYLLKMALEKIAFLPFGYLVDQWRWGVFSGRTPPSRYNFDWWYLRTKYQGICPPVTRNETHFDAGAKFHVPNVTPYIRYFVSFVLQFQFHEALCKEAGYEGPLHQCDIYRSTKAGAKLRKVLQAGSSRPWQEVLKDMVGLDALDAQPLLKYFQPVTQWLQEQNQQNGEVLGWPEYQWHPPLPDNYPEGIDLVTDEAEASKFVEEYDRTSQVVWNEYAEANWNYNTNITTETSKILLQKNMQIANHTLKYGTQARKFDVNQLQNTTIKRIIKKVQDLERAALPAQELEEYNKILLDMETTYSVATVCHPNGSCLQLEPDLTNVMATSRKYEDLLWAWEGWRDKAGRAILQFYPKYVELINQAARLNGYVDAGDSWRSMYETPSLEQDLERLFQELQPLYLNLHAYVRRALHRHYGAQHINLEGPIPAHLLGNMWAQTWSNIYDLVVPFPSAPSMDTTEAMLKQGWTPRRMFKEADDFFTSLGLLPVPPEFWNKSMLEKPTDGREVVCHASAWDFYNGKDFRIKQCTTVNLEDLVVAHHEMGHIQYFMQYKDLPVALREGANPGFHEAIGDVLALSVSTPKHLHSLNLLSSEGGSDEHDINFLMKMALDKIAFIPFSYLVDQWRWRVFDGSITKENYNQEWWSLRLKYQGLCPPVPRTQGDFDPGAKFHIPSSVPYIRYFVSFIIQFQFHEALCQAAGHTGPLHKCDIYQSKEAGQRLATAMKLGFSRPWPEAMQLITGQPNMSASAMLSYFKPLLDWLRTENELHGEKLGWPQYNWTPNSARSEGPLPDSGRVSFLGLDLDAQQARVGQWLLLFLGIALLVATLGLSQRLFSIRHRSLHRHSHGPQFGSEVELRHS
Sequence of Serine/threonine-protein kinase 33 (Homo sapiens) (Q9BYT3 whole entry, looked up): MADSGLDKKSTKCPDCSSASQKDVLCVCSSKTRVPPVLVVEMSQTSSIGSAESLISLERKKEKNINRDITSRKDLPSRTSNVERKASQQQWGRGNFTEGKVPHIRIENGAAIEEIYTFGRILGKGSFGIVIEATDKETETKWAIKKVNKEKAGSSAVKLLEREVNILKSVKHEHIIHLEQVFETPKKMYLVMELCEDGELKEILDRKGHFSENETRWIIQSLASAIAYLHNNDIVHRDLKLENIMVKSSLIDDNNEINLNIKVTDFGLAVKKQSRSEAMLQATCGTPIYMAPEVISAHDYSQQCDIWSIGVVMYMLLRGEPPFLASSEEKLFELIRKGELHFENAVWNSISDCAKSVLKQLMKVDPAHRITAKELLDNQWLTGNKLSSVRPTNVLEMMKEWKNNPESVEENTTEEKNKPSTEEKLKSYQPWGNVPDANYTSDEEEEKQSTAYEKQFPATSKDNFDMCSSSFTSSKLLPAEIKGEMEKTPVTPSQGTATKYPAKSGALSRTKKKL
Sequence of Phosphatidylinositol 4-phosphate 3-kinase C2 domain-containing subunit beta (Homo sapiens) (O00750 whole entry, the tested form may be a part): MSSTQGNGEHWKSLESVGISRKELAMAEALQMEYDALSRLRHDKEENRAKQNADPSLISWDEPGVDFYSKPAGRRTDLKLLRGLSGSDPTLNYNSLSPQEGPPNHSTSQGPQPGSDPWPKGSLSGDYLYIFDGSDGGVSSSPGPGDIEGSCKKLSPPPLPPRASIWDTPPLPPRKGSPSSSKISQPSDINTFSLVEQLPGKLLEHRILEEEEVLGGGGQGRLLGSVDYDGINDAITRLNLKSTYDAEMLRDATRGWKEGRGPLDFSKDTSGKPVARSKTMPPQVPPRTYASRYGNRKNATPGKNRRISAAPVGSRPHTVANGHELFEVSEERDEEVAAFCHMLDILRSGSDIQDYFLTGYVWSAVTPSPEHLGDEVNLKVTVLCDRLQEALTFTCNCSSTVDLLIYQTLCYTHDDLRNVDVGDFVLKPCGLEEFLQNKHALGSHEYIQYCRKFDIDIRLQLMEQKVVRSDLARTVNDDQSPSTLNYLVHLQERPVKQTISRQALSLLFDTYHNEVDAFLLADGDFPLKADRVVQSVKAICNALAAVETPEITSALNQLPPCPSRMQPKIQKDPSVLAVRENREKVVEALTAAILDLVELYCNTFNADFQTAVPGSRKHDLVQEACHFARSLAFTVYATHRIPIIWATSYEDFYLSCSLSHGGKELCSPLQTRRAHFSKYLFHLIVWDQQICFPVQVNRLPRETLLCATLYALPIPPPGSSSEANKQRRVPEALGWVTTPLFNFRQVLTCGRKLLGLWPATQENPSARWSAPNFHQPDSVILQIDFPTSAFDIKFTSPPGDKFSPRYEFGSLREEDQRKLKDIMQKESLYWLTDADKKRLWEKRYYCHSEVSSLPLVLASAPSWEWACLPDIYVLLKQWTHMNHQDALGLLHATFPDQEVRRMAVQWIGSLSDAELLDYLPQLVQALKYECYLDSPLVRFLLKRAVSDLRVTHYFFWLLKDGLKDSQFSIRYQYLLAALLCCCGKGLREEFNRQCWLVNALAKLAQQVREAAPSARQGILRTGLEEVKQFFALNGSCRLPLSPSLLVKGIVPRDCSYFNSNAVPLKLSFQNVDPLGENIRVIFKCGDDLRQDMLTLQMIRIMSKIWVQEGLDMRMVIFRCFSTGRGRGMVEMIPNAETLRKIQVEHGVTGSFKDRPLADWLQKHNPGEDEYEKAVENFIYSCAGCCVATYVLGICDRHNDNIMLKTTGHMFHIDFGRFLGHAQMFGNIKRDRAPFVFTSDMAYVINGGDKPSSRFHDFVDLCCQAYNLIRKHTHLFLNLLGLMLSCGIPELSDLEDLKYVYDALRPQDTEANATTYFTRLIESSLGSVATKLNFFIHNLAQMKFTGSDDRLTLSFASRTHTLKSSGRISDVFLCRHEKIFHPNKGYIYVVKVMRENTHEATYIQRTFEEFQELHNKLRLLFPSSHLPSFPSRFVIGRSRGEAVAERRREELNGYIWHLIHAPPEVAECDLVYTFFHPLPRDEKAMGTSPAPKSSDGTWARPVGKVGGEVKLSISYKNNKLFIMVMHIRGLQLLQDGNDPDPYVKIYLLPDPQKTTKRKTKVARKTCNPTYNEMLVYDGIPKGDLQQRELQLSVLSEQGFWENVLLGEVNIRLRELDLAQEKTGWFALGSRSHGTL
Sequence of Death-associated protein kinase 3 (Homo sapiens) (O43293 whole entry, looked up): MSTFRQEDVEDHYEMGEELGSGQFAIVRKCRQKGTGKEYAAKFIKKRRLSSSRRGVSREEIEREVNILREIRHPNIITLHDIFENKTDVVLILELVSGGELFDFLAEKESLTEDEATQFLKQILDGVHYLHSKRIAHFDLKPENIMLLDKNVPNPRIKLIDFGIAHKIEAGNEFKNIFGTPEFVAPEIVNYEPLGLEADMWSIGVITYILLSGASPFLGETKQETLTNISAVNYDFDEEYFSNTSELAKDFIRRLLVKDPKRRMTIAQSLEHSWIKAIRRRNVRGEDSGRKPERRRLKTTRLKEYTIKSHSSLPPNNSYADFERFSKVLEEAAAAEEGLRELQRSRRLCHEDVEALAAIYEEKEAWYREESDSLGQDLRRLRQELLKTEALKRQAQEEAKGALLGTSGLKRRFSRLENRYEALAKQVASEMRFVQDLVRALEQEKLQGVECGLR

CN(C)C(=O)Cn1cc(-c2nc([C@@](C)(c3ccc(-c4cnc(N)nc4)cc3)C3CC3)no2)cn1 [BI 665915]
inactive: [1] 98.5% | [2] 95% | [3] 105% | [4] 99.5% | [5] 99% | [6] 100% | [7] 88% | [8] 109% | [9] 93.5% | [10] 102% | [11] 116% | [12] 108% | [13] 102% | [14] 99% | [15] 94.5% | [16] 100% | [17] 97% | [18] 101% | [19] 99% | [20] 127% | [21] 95.5% | [22] 97% | [23] 99% | [24] 108%
